Reference: patent US20230080054A1 (ILDONG PHARMACEUTICAL CO., LTD., priority 2021, published 2023)

test system: platelet-rich plasma (PRP); test: Recalcification time of rat platelet-rich plasma; conditions: 30 μM, vs 2% DMSO control
Protocol: Example 5: Recalcification Time
1. Materials and Instruments
Isoflurane (Hana Pharm, cat. #9008), Isotonic Sodium Chloride Injection (Daihan Pharm, cat. #331), Citrate-dextrose solution (Sigma-Aldrich, cat. #C3821), Calcium chloride solution (Sigma-Aldrich, cat. #21115), 22G Syringe 10 mL (Koreavaccine), Dimethyl sulfoxide (Sigma-Aldrich, cat. #D5879), Apixaban (AK scientific, cat. #X1060), 96 Well Cell Culture Plates (SPL Life Sciences, cat. #30096), Synergy H4 Hybrid Microplate Reader (BioTek), Combi R515 Multi-purpose Centrifuge (Hanil Scientific), BS-06 Shaking & Heating Baths (JEIO TECH), and PST-60HL-4 Plate Shaker-Thermostat (Bio-San)
Seven-week-old male SD Rat (ORIENT BIO.) were maintained under controlled conditions of temperature (22±2° C.) and 12-h light/12-h dark cycle. Rats were housed in the pathogen-free facility of the Laboratory Animal Research Center in Ildong Pharmaceutical Co. Ltd. All procedures on animals were conducted in accordance with the relevant national regulatory guidelines and individual experiments approved by the Ildong Pharmaceutical Co. Ltd., Institutional Animal Care and Use Committee (IACUC) (approval No.: A2106-3, 2108-4).
The ability of test compounds to interfere with plasma coagulation, in the presence of platelets, was analyzing by measuring the recalcification time of rat plasma. The blood of animals was collected into 15 mL tubes containing Citrate-dextrose solution (9:1 v/v) before performing the assays. For recalcification time, platelet-rich plasma (PRP) samples were obtained by centrifugation at 360×g for 10 minutes. And the PRP were preincubated for 5 minutes (37° C.). In a 96 well microplate, test compounds (2 μL) were treated in 98 μL of platelet rich plasma. After mixing with a pipette, it was incubated at 37° C. for 15 minutes. The reaction was started by addition of 200 μL of pre-warmed CaCl2) (16 mM). Immediately, put the microplate in a microplate reader and the signals were measured by the following steps.
(1) 405 nm wavelength absorbance signals were recorded in every 10 seconds at 37° C.
(2) Basal absorbance signals were recorded for 0 second.
The signal variance of each of the test compounds was obtained by the following step.
(1) Background signals (t=O) were subtracted from recording values, and the resulting values were converted to change values. The values at 0 second were set to be zero.
The retardation time of test compound were calculated by the following formula:
Retardation time (sec)=[log EC50 (test sample)−log EC50 (DMSO control)]
As described above, a DMSO control group is a group to which 2% DMSO was treated.
The assay result is shown in Table 5, where compounds (30 μM) having less than 20 seconds of retardation time are marked by ‘C’; the compounds (30 μM) having retardation time of 20 seconds or more to less than 50 seconds are marked by ‘B’; and the compounds (30 μM) having retardation time of 50 seconds or more are marked by ‘A’.

Compound | Inhibition Level (retardation time, recalcification time)
O=C(N[C@@H]1C[C@H]1c1ccccc1)c1cccc(Nc2ccc(-c3ccccc3)nn2)c1 [Compound 68, N-[(1R,2S)-2-phenylcyclopropyl]-3-[(6-phenylpyridazin-3-yl)amino]benzamide] | A (the compounds (30 μM) having retardation time of 50 seconds or more)
O=C(NCCc1cccc(C(F)(F)F)c1)c1cccc(Nc2ncc(-c3cccc(F)c3)cn2)c1 [Compound 79, 3-{[5-(3-fluorophenyl)pyrimidin-2-yl]amino}-N-{2-[3-(trifluoromethyl)phenyl]ethyl}benzamide] | C (compounds (30 μM) having less than 20 seconds of retardation time)
O=C(NCCC1CCCCC1)c1cccc(Nc2ncc(-c3cccc(F)c3)cn2)c1 [Compound 80, N-(2-cyclohexylethyl)-3-{[5-(3-fluorophenyl)pyrimidin-2-yl]amino}benzamide] | C (compounds (30 μM) having less than 20 seconds of retardation time)
O=C(Nc1ccc(Cl)c(Cl)c1)c1cccc(Nc2ncc(-c3cccc(F)c3)cn2)c1 [Compound 118, N-(3,4-dichlorophenyl)-3-{[5-(3-fluorophenyl)pyrimidin-2-yl]amino}benzamide] | C (compounds (30 μM) having less than 20 seconds of retardation time)
O=C(N[C@@H]1C[C@H]1c1ccccc1)c1cccc(Nc2ncc(-c3cccc(F)c3)cn2)c1 [Compound 119, 3-{[5-(3-fluorophenyl)pyrimidin-2-yl]amino}-N-[(1R,2S)-2-phenylcyclopropyl]benzamide] | C (compounds (30 μM) having less than 20 seconds of retardation time)
O=C(Nc1cccc(F)c1)c1cccc(Nc2ccc(-c3cccc(F)c3)cn2)c1 [Compound 122, N-(3-fluorophenyl)-3-{[5-(3-fluorophenyl)pyridin-2-yl]amino}benzamide] | B (the compounds (30 μM) having retardation time of 20 seconds or more to less than 50 seconds)
O=C(N[C@@H]1C[C@H]1c1ccccc1)c1cccc(Nc2ccc(-c3cccc(F)c3)cn2)c1 [Compound 123, 3-{[5-(3-fluorophenyl)pyridin-2-yl]amino}-N-[(1R,2S)-2-phenylcyclopropyl]benzamide] | B (the compounds (30 μM) having retardation time of 20 seconds or more to less than 50 seconds)
